Numbering of substitutions follows the chain as printed. Read-outs that look alike come from different tables or passages of the source. Where no end group is shown, it is not given here. [ ]: non-standard residue; d: D form. Hyp = O=C(O)[C@@H]1C[C@@H](O)CN1
Tests used:
[1] = test system: Arabidopsis Col-0 seedlings (primary root); experiment: Root growth assay, wild type (Col-0); assay type: in vivo, Arabidopsis thaliana; conditions: 50 nM peptide, 9-day-old seedlings, primary root length, n ≥ 12
Method: Plant tissue culture, plant transformation, and common molecular biology procedures such as genomic DNA isolation, genotyping, sequencing, and peptide or inhibitor treatments were performed according to standard procedures as previously described 9, 19, 44, 65.
All mutant and transgenic lines were in the Arabidopsis Columbia‐0 (Col‐0) background. The following previously described mutant alleles were used throughout: brx‐2, bam3‐2, brx‐2 bam3, clv2‐1, serk1‐1 and serk1‐3, serk2‐1, serk3‐1, serk4‐1, serk5‐1 9, 47, 59, 66, 67, 68. The crn loss‐of‐function mutant allele (crn‐10) carries a single nucleotide insertion in front of the 7th codon, which leads to a frameshift and three subsequent premature stop codons after amino acid 10 52.

[2] = biological target: IDA peptide (Arabidopsis thaliana) (UniProt Q8LAD7); conditions: cited from earlier work
Chain of IDA peptide (Arabidopsis thaliana) (Q8LAD7 27-77): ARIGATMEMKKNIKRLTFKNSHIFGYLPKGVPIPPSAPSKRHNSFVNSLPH

[3] = biological target: IDA peptide (Arabidopsis thaliana) (UniProt Q8LAD7); conditions: cited from earlier work; remark: listed apart in the source
BAM1 = conditions: CLE9gp arabinosylated, CLE9p non-arabinosylated; ref Shinohara et al., 2012; cited from earlier work
From the text: (§1) “6. We'd also like the authors to answer or discuss following aspects in the discussion part.” “6-1. How do you explain the insensitivity of crn to all CLE peptides? Does it control expression of CLV as well?” At this point we can only speculate on this. As we highlight in the discussion, maybe the expression of other, yet to be identified CLE receptors in the root also depends on CR ...

[4] = biological target: T1, BAM3 extracellular (LRR) domain (30–651) (Arabidopsis thaliana, UniProt O65440); experiment: biochemical; assay type: binding
T1 construct: azurocidin signal peptide (N); made in house; host or cells: Trichoplusia ni Tnao38 insect cells (baculovirus, secreted)
Method: Isothermal titration calorimetry assays were run on a Nano ITC (1 ml standard cell; 250 μl syringe; TA Instruments) at 25°C in 20 mM sodium citrate pH 5 and 150 mM NaCl for all ITCs with BAM3 and 10 mM Bis–Tris pH 6 and 100 mM NaCl for the ITC with PXY. […] For each experiment, 10 μl was repetitively injected into the cell in 150 s time intervals. The measured heat rates for the BAM3‐ECD vs. CLE45, BAM3^QYY vs. CLE45, BAM3‐ECD vs. Y‐CLE45, BAM3‐ECD vs. CLV3, BAM3‐ECD vs. Y‐CLV3, and PXY‐ECD vs. CLE41/44 were corrected by subtracting the heat rates measured for injecting CLE45, Y‐CLE45, CLV3, Y‐CLV3, or CLE41/44 into the ITC buffer, respectively. The data for the BAM3‐ECD + CLE45 vs. SERK1‐ECD measurement was corrected by subtracting heat rates acquired by injecting SERK1‐ECD into a cell containing CLE45. Data analyses and modeling were carried out using the software supplied by the manufacturer (NanoAnalyze, version 3.5).

[5] = test system: bam3 mutant seedlings (primary root); conditions: compared with WT; ref Depuydt et al., 2013; cited from earlier work
From the text: as §1

BAM3 = conditions: ref Shinohara et al., 2012; cited from earlier work
From the text: page 6: EMBO reports - Peer Review Process File - EMBO-2016-43535 of both. […] Or alternatively to measure mRNA level by qRT-PCR. This will at least resolve if it's transcriptional regulation or not. 3. One way to bolster their statement about CRN's BAM3 regulation would be to do a simple complementation. If authors' already generated CRN::CRN in crn mutant background, we highly recommend that the authors use this line as well. BAM3-BAM3-CITRINE construct are introduced ...

[6] = test system: Arabidopsis Col-0 seedlings (primary root); conditions: cited from earlier work
Method: page 3: EMBO reports - Peer Review Process File - EMBO-2016-43535 including a report from the same group (Kinoshita et al, 2007 Plant Cell Physiol 48:1821; Whitford et al, 2008 PNAS 105:18625; Depuydt et al. 2013 PNAS 110:7074) where CLE6 peptides exert the root shortening activity only at a very high concentration (10 µM). Results on CLE8, CLE16, CLE17, CLE20 and CLE22 are also different from the previous report (Depuydt et al. 2013). […] Please indicate the meaning of the asterisks in column "Col-0" in Figure 2B, "***a" and "***b" in Figure 2C, describe all the peptide sequences used in this study and re-confirm if the results are correct and reproducible. The details are the following.” ….and subordinate comments.

[7] = biological target: T2, PXY extracellular domain (PXY-ECD) (Arabidopsis thaliana, UniProt Q9FII5 30-647); experiment: ITC
T2 chain: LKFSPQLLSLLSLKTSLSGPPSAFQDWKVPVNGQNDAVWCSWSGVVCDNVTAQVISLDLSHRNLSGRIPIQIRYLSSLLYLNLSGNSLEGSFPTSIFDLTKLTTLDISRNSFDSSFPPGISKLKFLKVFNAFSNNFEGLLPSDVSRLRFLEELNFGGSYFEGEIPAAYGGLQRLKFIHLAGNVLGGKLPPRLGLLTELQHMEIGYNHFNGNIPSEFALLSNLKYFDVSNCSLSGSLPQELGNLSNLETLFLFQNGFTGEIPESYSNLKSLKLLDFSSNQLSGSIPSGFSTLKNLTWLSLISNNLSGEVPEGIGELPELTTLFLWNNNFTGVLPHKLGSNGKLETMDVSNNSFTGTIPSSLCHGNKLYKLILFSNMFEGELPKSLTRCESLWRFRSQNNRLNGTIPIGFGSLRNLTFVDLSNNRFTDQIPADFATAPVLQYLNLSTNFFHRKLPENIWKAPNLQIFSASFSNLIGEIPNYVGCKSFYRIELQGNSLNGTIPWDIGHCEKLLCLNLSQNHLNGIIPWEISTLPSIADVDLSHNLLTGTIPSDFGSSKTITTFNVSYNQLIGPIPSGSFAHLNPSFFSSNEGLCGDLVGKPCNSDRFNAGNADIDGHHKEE

[8] = biological target: T3, BAM3 extracellular domain (BAM3-ECD) (Arabidopsis thaliana, UniProt O65440 30-651); experiment: ITC; peptide titrated (10 μl injections, 150 s intervals) into the BAM3 ectodomain in the cell; Nano ITC, 25°C, 20 mM sodium citrate pH 5, 150 mM NaCl; conditions: both partners purified
T3 construct: Cloned in a modified pFastBac1 with an N-terminal azurocidin signal peptide for secretion; MALDI-TOF mass 94,586 Da; also called BAM3 LRR domain; BAM3 ectodomain; source: Trichoplusia ni Tnao38 cells, secreted, purified (Ni2+, StrepII, size-exclusion chromatography)
T3 sequence (looked up): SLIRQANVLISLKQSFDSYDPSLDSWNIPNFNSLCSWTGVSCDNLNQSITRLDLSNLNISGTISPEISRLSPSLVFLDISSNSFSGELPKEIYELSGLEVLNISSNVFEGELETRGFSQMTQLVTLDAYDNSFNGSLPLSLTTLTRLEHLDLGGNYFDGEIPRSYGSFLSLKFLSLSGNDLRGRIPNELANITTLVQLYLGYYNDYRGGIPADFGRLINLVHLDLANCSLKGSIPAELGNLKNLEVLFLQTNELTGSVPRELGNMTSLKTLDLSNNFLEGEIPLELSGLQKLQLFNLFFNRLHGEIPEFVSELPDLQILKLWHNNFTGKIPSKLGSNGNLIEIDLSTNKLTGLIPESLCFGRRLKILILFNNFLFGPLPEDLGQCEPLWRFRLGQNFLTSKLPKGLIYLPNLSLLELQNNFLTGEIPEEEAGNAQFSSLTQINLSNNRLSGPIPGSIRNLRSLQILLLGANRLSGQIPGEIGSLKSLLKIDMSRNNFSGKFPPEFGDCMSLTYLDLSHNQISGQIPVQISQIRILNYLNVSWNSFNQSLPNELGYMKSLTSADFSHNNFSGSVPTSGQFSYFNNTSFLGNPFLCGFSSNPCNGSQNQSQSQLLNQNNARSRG

[9] = biological target: T4, BAM3^QYY extracellular domain (BAM3^QYY-ECD) (Arabidopsis thaliana, UniProt O65440 30-651, Q226A | Y228A | Y231A); experiment: as above; conditions: both partners purified
T4 construct: Same construct as m1 (azurocidin signal peptide for secretion) with three point mutations; also called mutant BAM3^QYY; source: Trichoplusia ni Tnao38 cells, secreted, purified (Ni2+, StrepII, size-exclusion chromatography)
T4 sequence (looked up): T3 sequence (looked up) with Q197A, Y199A, Y202A

[10] = biological target: T5, BAM3^QYY extracellular domain (BAM3^QYY-ECD) (Arabidopsis thaliana, UniProt O65440 30-651, Q226A | Y228A | Y231A); experiment: ITC
T5 sequence: T3 sequence (looked up) with Q197A, Y199A, Y202A

[11] = biological target: T6, BAM3 extracellular domain (BAM3-ECD) (Arabidopsis thaliana, UniProt O65440 30-651); experiment: ITC
T6 chain: T3 sequence (looked up)

RVVPSGPNPLHH [CLE11, CLE11: …]
impact on root growth [1]: significant, reproducible impact on root growth

HAESA (from UniProt P47735)
Kd [2]: 20000 nM | Kd [3]: 350 nM

CLE9gp: arabinosylated CLE9 (RLVPSGPNPLHN; ends and bridges not checked; also: arabinosylated, place not given here; UniProt Q9FZE4 109-120, looked up)
Kd (BAM1): 2.2 nM

RLVPSGPNPLHN [CLE9/10, CLE9/10: …]
impact on root growth [1]: significant, reproducible impact on root growth

RRVRRGSDPIHN [CLE45]
Kd [4]: 116 ± 36 nM

RSIPTGPNPLHN [CLE21, CLE21: …]
impact on root growth [1]: significant, reproducible impact on root growth

RLVPKGPNPLHN [CLE14, CLE14: …]
impact on root growth [1]: significant, reproducible impact on root growth

CLE9: CLE9 (earlier reports) (RLVPSGPNPLHN; ends and bridges not checked; UniProt Q9FZE4 109-120, looked up)
root response of bam3 mutants [5]: not suppressed in bam3 mutant plants | binding to BAM3, in words (BAM3): BAM3 has been shown to have a binding activity to CLE9

RTVPSGPDPLHH [CLV3, CLV3: …]
N (stoichiometry) ([4]; ITC, 25°C, 20 mM sodium citrate pH 5, 150 mM NaCl, ± fitting errors (95% confidence interval), n.d.: not detectable): 0.978 +/- 0.23 | reduction in binding affinity of CLV3 vs. CLE45 (fold) ([4]; ITC, Fig EV1C vs. CLE45): 70 fold | impact on root growth [1]: significant, reproducible impact on root growth

RKVPNGPDPIHN [CLE25, CLE25: …]
impact on root growth [1]: significant, reproducible impact on root growth

CLE6: CLE6 peptide (earlier reports; not assayed) (RVSPGGPDPQHH; ends and bridges not checked; UniProt Q8S8N3 70-81, looked up)
concentration needed for root shortening activity ([6]; referee's comment, ref Kinoshita et al, 2007, Whitford et al, 2008, Depuydt et al. 2013): 10 µM | root growth suppression in words ([6]; tissue culture, nM to low μM concentrations): not root-active

RQVPTGSDPLHH [CLE40, CLE40: …]
impact on root growth [1]: significant, reproducible impact on root growth

CLE9p: non-arabinosylated CLE9 (RLVPSGPNPLHN; ends and bridges not checked; UniProt Q9FZE4 109-120, looked up)
Kd (BAM1): 1.8 nM

RLVHTGPNPLHN [CLE16, CLE16: …]
impact on root growth [1]: significant, reproducible impact on root growth

RRVPTGPNPLHH [CLE8, CLE8: …]
impact on root growth [1]: significant, reproducible impact on root growth

RLVPSGPNPLHH [CLE13, CLE13: …]
impact on root growth [1]: significant, reproducible impact on root growth

RQIPTGPDPLHN [CLE18, CLE18: …]
impact on root growth [1]: significant, reproducible impact on root growth

RKVKTGSNPLHN [CLE20, CLE20: …]
impact on root growth [1]: significant, reproducible impact on root growth

B1: CLE41/44 peptide (ITC, unmodified as printed) (peptide)
peptide: HEVPSGPNPISN
notes: CLE41/44 (TDIF), mature 12-residue CLE peptide of Arabidopsis, the same from CLE41 and CLE44; The same peptide is also encoded by CLE44; also called TDIF; source: synthetic peptide (Peptide Specialty Laboratories, Heidelberg)
Kd [7]: 12.2 nM

B2: CLE45 peptide (peptide)
peptide: RRVRRGSDPIHN
notes: CLE45, mature 12-residue CLE peptide of Arabidopsis; also called synthetic CLE45 peptide; source: synthetic peptide (Peptide Specialty Laboratories, Heidelberg)
Kd [8]: ~120 nM | stoichiometry N [8]: 1 | fold weaker than with the wild-type LRR domain [9]: ~8 fold | Kd [10]: 1110 nM

B3: N-terminally tyrosine-modified CLE45 peptide (Y-CLE45) (peptide)
peptide: YRRVRRGSDPIHN
Kd [11]: 12700 nM

B4: CLV3 peptide (ITC) (peptide)
peptide: RTV[Hyp]SG[Hyp]DPLHHH
notes: CLAVATA3 (CLV3) mature CLE peptide of Arabidopsis, 13 residues as printed for the ITC; the ITC peptide is printed with three C-terminal histidines; source: synthetic peptide (Peptide Specialty Laboratories, Heidelberg)
Kd [8]: ~10000 nM | Kd [11]: 8620 nM

Source: article PMC5538625, “Perception of root‐active CLE peptides requires CORYNE function in the phloem vasculature” (EMBO Reports, 2017)
